# Source: US20230416287A1, “Chemical Compounds” (GLAXOSMITHKLINE INTELLECTUAL PROPERTY DEVELOPMENT LIMITED, priority 2022, published 2023)
# Tests used:
# human Nav1.8 [1] = biological target: T1, human Nav1.8 (Homo sapiens, UniProt Q9Y5Y9); experiment: Manual patch-clamp electrophysiology assay, HEK293 cells overexpressing human Nav1.8; assay type: cell-based; parameters: host or cells: HEK293; conditions: manual whole-cell patch-clamp, single-pulse resting protocol, holding voltage -120 mV, step to 0 mV, room temperature
# Text: The pharmacological activity of the Compounds of Example 4A and Example 5A (active parent compound of prodrug Example 4 and Example 5, respectively) was investigated by a patch-clamp electrophysiological method using a cellular system in which human Nav1.8 was overexpressed in HEK293 cells. Using this approach Nav1.8 can be activated by modulating the plasma membrane voltage and then channel function (Na^+ conduction) can be directly quantified. The ability of Nav1.8 inhibitors to block channel function in this system is a measurement of target binding and inhibition.
# Cell preparation: HEK293 cells overexpressing human Nav1.8 (BIOCAT124824) were grown at 37° C., 5% C02 in medium (DMEM/F12 with 10% FBS, 2 mM GlutaMAX, 0.1 mM NEAA and […] G418, […] Hygromycin-B and […] Puromycin). […]
# Voltage-clamp recording protocol: Compound effects were tested using single-pulse resting protocol in which cells were depolarized to 0 mV for 50 ms from a holding voltage of −120 mV. The peak current amplitudes were measured from the activated currents at 0 mV. […]
# Nav1.8 current amplitudes measurement and normalization: Nav1.8 peak currents elicited by test pulse of 0 mV were measured and analysed by Clampfit 10.6 Software (Molecular Devices, USA). […]
# Compound inhibition analysis: The compound inhibition effect was calculated using the following equation: […]
# CAD kinetic solubility = assay type: physicochemical; conditions: phosphate buffered saline (PBS), aqueous buffer, PBS pH 7.4, 1 hour equilibration at room temperature, from DMSO stock, HPLC-CAD
# Description: Kinetic solubility was measured using Charged Aerosol Detector (CAD). The aqueous kinetic solubility at pH 7.4 was determined by measuring the concentration of solute in solution after precipitation from DMSO stock solution. The DMSO stock solution was diluted 20-fold with phosphate buffered saline (PBS) pH 7.4 and the solubility of the compound was measured after 1 hour equilibration at room temperature by HPLC-CAD.
# human Nav1.8 [2] = biological target: T1, human Nav1.8; experiment: Nav1.8 inhibitory activity, QPatch 48 HTX electrophysiology in HEK293-Nav1.8 cells; assay type: cell-based; parameters: expressed in transfected cells; host or cells: HEK293; conditions: half inactivation state voltage protocol (V1/2), HEK293 cells expressing human Nav1.8, read-out: [Nav1.8] pIC50 (converted)
# Description: Biological Assay 1: Nav1.8 Inhibitory Activity Human embryonic kidney 293 cells (HEK293) expressing human Nav1.8, human Navol and human TREK1 (HEK293-Nav1.8) were grown in T150 cell culture flasks at 37° C., 5% CO2 incubator. HEK293-Nav1.8 were passaged every 2-3 days when confluency reached 80-90% in T150 cell culture flasks.
# Pharmacological assessment of compounds of the invention was performed using the QPatch 48 HTX electrophysiological platform. HEK293-Nav1.8 cells were prepared on the day of use by removing culture media, washing in DPBS, adding Accutase (2 mL to cover the surface, aspirate 1 mL then 1-2 minutes at 37° C.) followed by addition of CHO-SFM II to stop the enzyme digestion and in order to obtain a suspension of 3×10^6 cell/mL.
# Compounds of the invention were prepared in an extracellular solution of the following composition: NaCl (145 mM), KCl (4 mM), CaCl2) (2 mM), MgCl (2 mM), HEPES (1 mM), Glucose (10 mM), pH 7.4 with NaOH Osmolality 300 mOsM/L. An intracellular solution of the following composition was used: CsF (115 mM), CsCl (20 mm), NaCl (5 mM), EGTA (10 mM), HEPES (10 mM), Sucrose (20 mM), pH 7.2 with CsOH Osmolality 310 mOsm/L.
# Utilizing the voltage-clamp mode in the QPatch 48 HTX system a half inactivation state voltage protocol (V1/2) was used to determine pharmacological activity of compounds of the invention at Nav1.8 ion channels. A V1/2 protocol was utilized with the following voltage steps: a holding voltage of −100 mV was established followed by a 20 ms voltage step to 0 mV (P1), followed by an inactivating voltage step at −46 mV for 8 seconds, followed by a step to −100 mV for 20 ms, before a 20 ms step to 0 mV (P2), then returned to the holding voltage of −100 mV. This voltage protocol was repeated at a frequency of every 15 seconds, the current magnitude was quantified at the P2 step throughout the recording. Inhibition of the measured current amplitude with compounds of the invention was analyzed by fitting a 4-6 points dose-response curve allowing determination of the fifty percent inhibition concentration (IC50). P2 currents were normalized according to measurements made at baseline (Baseline, vehicle only), after compound (Input, at each test concentration), and after positive reference compound (FullResponse, to achieve complete block), fit to the following equation: […]
# To assess current run-down over the course of the experiment vehicle-only wells were utilized and the normalized current with vehicle-only (n. IVEH) was determined. To correct the compound response for run-down, the currents were corrected according to the following formula:
# [formula] • Compound inhibition was fitted to the following Hill Equation to estimate the half maximal inhibition concentration (IC50)
# [formula] • where Y is the normalized run-down corrected inhibition relative to the vehicle control (equivalent to n. IRD_Correct), C the test compound concentration, IC50 the concentration of test compound to inhibit the sodium current by 50%, and h the Hill coefficient.
# T1 sequence (Q9Y5Y9 whole entry): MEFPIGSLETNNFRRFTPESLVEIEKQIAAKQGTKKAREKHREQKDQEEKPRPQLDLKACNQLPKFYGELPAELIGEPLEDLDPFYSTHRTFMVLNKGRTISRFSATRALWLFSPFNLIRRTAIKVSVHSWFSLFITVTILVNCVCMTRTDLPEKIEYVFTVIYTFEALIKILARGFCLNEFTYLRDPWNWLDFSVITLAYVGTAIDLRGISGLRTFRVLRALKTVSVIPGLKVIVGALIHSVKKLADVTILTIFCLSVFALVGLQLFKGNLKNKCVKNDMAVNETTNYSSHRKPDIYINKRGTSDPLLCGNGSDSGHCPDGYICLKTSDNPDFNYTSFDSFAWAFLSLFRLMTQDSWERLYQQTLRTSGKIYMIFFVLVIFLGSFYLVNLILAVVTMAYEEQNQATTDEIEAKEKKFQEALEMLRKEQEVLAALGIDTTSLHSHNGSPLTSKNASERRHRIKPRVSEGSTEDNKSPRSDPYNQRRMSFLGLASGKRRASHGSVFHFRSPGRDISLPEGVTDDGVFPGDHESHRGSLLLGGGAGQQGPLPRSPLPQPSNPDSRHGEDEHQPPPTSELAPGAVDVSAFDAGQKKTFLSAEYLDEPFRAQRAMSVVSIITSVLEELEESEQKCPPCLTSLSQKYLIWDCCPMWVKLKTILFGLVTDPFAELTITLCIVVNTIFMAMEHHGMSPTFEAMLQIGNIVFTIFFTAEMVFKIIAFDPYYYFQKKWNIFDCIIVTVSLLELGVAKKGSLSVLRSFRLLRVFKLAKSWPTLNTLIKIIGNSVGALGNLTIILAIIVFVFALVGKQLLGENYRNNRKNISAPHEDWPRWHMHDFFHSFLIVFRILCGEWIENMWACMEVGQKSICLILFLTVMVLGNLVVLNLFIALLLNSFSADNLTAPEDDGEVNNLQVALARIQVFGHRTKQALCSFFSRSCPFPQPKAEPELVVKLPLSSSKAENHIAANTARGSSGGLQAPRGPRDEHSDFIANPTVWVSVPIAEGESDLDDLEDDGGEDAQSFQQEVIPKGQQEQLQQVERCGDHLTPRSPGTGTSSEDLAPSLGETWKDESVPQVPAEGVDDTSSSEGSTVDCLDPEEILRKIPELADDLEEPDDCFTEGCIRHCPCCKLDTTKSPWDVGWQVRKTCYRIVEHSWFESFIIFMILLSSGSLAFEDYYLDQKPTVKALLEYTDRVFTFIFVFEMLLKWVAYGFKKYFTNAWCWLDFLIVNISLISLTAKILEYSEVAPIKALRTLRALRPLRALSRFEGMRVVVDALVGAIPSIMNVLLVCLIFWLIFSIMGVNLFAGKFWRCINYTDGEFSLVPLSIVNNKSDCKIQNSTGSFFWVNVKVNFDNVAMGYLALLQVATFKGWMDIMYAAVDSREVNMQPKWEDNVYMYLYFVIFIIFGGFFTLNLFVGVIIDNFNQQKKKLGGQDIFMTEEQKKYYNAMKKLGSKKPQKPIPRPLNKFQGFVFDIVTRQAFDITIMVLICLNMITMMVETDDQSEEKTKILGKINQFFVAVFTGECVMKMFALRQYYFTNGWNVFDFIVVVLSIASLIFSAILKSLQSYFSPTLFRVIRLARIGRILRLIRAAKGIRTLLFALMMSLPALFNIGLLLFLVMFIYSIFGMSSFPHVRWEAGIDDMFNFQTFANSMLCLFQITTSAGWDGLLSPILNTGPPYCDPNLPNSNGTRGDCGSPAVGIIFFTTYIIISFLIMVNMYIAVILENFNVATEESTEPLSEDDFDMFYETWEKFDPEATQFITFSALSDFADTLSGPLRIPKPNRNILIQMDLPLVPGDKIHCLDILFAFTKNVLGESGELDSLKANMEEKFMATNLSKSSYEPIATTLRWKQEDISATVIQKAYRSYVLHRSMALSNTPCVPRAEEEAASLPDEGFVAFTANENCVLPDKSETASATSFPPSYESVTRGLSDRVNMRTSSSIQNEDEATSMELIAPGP
IC50 (human Nav1.8 [1]) [nM],solubility at 1 h (CAD kinetic solubility) [µg/mL],IC50 (human Nav1.8 [2]) [nM],SMILES
0.8 ± 0.2,44,5.01,"Cc1[nH]c(=O)ccc1N1CN(c2ccc(F)c(F)c2C)c2cc(Cl)c(F)cc2C1=O [Example 4A, 7-chloro-1-(3,4-difluoro-2-methylphenyl)-6-fluoro-3-(2-methyl-6-oxo-1,6-dihydropyridin-3-yl)-2,3-dihydroquinazolin-4(1H)-one]"
2.2,55,5.01,"Cc1cc(F)ccc1N1CN(c2ccc(=O)[nH]c2C)C(=O)c2cc(F)c(Cl)cc21 [Example 5A, 7-chloro-6-fluoro-1-(4-fluoro-2-methylphenyl)-3-(2-methyl-6-oxo-1,6-dihydropyridin-3-yl)-2,3-dihydroquinazolin-4(1H)-one]"
